The experiment has as its target T1, ZmAKR4C13 (Zea mays, UniProt E9JVD4).
T1 construct: gene AR3; monomer
In words: X-ray crystallography. Format: binding. As to conditions: 5JGW 2.30 Å (P2_12_12_1); 5JGY 1.45 Å (P2_1), partial occupancy. The text has this: X-ray crystallography on ZmAKR4C13 | b32; b72

Each structure is given as a SMILES string.

T1 sequence (E9JVD4 1-319): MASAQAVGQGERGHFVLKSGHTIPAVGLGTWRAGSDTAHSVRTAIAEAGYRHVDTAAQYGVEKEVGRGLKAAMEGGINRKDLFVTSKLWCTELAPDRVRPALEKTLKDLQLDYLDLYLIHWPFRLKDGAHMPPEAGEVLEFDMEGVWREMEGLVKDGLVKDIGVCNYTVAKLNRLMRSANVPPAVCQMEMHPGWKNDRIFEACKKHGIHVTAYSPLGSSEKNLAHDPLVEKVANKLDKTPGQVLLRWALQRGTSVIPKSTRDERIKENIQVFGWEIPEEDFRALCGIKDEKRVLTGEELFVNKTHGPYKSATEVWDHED

On to `NC(=O)c1ccc[n+]([C@@H]2O[C@H](COP(=O)(O)OP(=O)(O)OC[C@H]3O[C@@H](n4cnc5c(N)ncnc54)[C@H](OP(=O)(O)O)[C@@H]3O)[C@@H](O)[C@H]2O)c1` [NADP+], for which the X-ray crystallography result is “b32; b72”.

The values are drawn from article PMC12302338, “Functional genomics and structural insights into maize aldo-keto reductase-4 family: Stress metabolism and substrate specificity in embryos” (The Journal of Biological Chemistry, 2025).
